Measurements from ChEMBL document CHEMBL1201861, “Genomics of Drug Sensitity in Cancer screening data, Wellcome Trust Sanger Institute”.

Assays:
Assay in all cases: cells
Format in all cases: functional, cell-based, Homo sapiens
[1] = test system: C8166; conditions: Homo sapiens, C8166;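 further: growth inhibition of human C8166 cells measured by a cell viability assay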
Description: SANGER: Inhibition of human C8166 cell growth in a cell viability assay.

[2] = test system: LS-123; conditions: Homo sapiens, LS-123
Description: SANGER: Inhibition of human LS-123 cell growth in a cell viability assay.

[3] = test system: ES4; conditions: Homo sapiens, ES4;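 further: growth inhibition of human ES4 cells, read out by a cell viability assay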
Description: SANGER: Inhibition of human ES4 cell growth in a cell viability assay.

[4] = test system: NB12; conditions: Homo sapiens, NB12;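 further: growth inhibition of human NB12 cells, read out by a cell viability assay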
Description: SANGER: Inhibition of human NB12 cell growth in a cell viability assay.

[5] = test system: SBC-1; conditions: Homo sapiens, SBC-1;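 further: cell viability assay measuring growth inhibition of the SBC-1 cell line, IC50 being the concentration that halves growth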
Description: SANGER: Inhibition of human SBC-1 cell growth in a cell viability assay.

[6] = test system: LB1047-RCC; conditions: Homo sapiens, LB1047-RCC;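 further: inhibition of cell growth, determined with a cell viability assay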
Description: SANGER: Inhibition of human LB1047-RCC cell growth in a cell viability assay.

[7] = test system: HT; conditions: Homo sapiens, HT
Description: SANGER: Inhibition of human HT cell growth in a cell viability assay.

[8] = test system: UACC-257; conditions: Homo sapiens, UACC-257
Description: SANGER: Inhibition of human UACC-257 cell growth in a cell viability assay.

[9] = test system: JVM-2; conditions: Homo sapiens, JVM-2;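 further: growth inhibition of JVM-2 cells determined by a cell viability assay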
Description: SANGER: Inhibition of human JVM-2 cell growth in a cell viability assay.

[10] = test system: no-11; conditions: Homo sapiens;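 further: growth inhibition of human NO-11 cells, read out with a cell viability assay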
Description: SANGER: Inhibition of human no-11 cell growth in a cell viability assay.

[11] = test system: NCI-H1092; conditions: Homo sapiens, NCI-H1092;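 further: cell growth inhibition measured with a cell viability assay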
Description: SANGER: Inhibition of human NCI-H1092 cell growth in a cell viability assay.

[12] = test system: RPMI-8866; conditions: Homo sapiens, RPMI-8866
Description: SANGER: Inhibition of human RPMI-8866 cell growth in a cell viability assay.

[13] = test system: VA-ES-BJ; conditions: Homo sapiens, VA-ES-BJ;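 further: growth inhibition of the VA-ES-BJ cell line, read out by a cell viability assay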
Description: SANGER: Inhibition of human VA-ES-BJ cell growth in a cell viability assay.

[14] = test system: HCC2157; conditions: Homo sapiens, HCC2157;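 further: growth inhibition of the cancer cell line, read out as cell viability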
Description: SANGER: Inhibition of human HCC2157 cell growth in a cell viability assay.

[15] = test system: COLO-829; conditions: Homo sapiens, COLO-829
Description: SANGER: Inhibition of human COLO-829 cell growth in a cell viability assay.

[16] = test system: NCI-H1581; conditions: Homo sapiens, NCI-H1581;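 further: cell growth inhibition read out by a viability assay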
Description: SANGER: Inhibition of human NCI-H1581 cell growth in a cell viability assay.

[17] = test system: CTB-1; conditions: Homo sapiens, CTB-1
Description: SANGER: Inhibition of human CTB-1 cell growth in a cell viability assay.

[18] = test system: NH-12; conditions: Homo sapiens, NH-12;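 further: growth inhibition of NH-12 cells, read out with a cell viability assay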
Description: SANGER: Inhibition of human NH-12 cell growth in a cell viability assay.

[19] = test system: NCI-H69; conditions: Homo sapiens, NCI-H69;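 further: growth inhibition of the cell line, read out with a cell viability assay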
Description: SANGER: Inhibition of human NCI-H69 cell growth in a cell viability assay.

[20] = test system: RXF 393; conditions: Homo sapiens, RXF 393;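 further: growth inhibition of human RXF 393 cells, read out with a cell viability assay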
Description: SANGER: Inhibition of human RXF393 cell growth in a cell viability assay.

[21] = test system: NMC-G1; conditions: Homo sapiens, NMC-G1;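 further: growth inhibition of the NMC-G1 cell line, measured with a cell viability read-out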
Description: SANGER: Inhibition of human NMC-G1 cell growth in a cell viability assay.

[22] = test system: TE-9; conditions: Homo sapiens, TE-9;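 further: cell growth inhibition, measured with a cell viability readout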
Description: SANGER: Inhibition of human TE-9 cell growth in a cell viability assay.

[23] = test system: MN-60; conditions: Homo sapiens, MN-60;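 further: growth inhibition of the MN-60 cell line, determined with a cell viability assay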
Description: SANGER: Inhibition of human MN-60 cell growth in a cell viability assay.

[24] = test system: ES1; conditions: Homo sapiens, ES1;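 further: growth inhibition of ES1 cells, read out with a cell viability assay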
Description: SANGER: Inhibition of human ES1 cell growth in a cell viability assay.

[25] = test system: L-363; conditions: Homo sapiens, L-363
Description: SANGER: Inhibition of human L-363 cell growth in a cell viability assay.

[26] = test system: NCI-H209; conditions: Homo sapiens, NCI-H209;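 further: growth inhibition of human NCI-H209 cells, measured by a cell viability assay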
Description: SANGER: Inhibition of human NCI-H209 cell growth in a cell viability assay.

[27] = test system: GAK; conditions: Homo sapiens, GAK;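 further: cell growth inhibition read out by a cell viability assay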
Description: SANGER: Inhibition of human GAK cell growth in a cell viability assay.

[28] = test system: BV-173; conditions: Homo sapiens, BV-173
Description: SANGER: Inhibition of human BV-173 cell growth in a cell viability assay.

[29] = test system: D-247MG; conditions: Homo sapiens, D-247MG
Description: SANGER: Inhibition of human D-247MG cell growth in a cell viability assay.

[30] = test system: COLO-320-HSR; conditions: Homo sapiens, COLO-320-HSR;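 further: growth inhibition of COLO-320-HSR cells, determined with a cell viability assay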
Description: SANGER: Inhibition of human COLO-320-HSR cell growth in a cell viability assay.

[31] = test system: SW684; conditions: Homo sapiens, SW684;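 further: growth inhibition of human SW684 cells, measured by a cell viability assay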
Description: SANGER: Inhibition of human SW684 cell growth in a cell viability assay.

[32] = test system: SF-268; conditions: Homo sapiens, SF-268;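 further: growth inhibition of SF-268 cells determined with a cell viability assay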
Description: SANGER: Inhibition of human SF268 cell growth in a cell viability assay.

[33] = test system: TE-10; conditions: Homo sapiens, TE-10;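 further: growth inhibition of TE-10 cells, measured by a cell viability assay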
Description: SANGER: Inhibition of human TE-10 cell growth in a cell viability assay.

[34] = test system: TE-5; conditions: Homo sapiens, TE-5;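 further: inhibition of cell growth, read out by a cell viability assay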
Description: SANGER: Inhibition of human TE-5 cell growth in a cell viability assay.

[35] = test system: DOHH-2; conditions: Homo sapiens, DOHH-2;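 further: growth inhibition of human DOHH-2 cells, read out with a cell viability assay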
Description: SANGER: Inhibition of human DOHH-2 cell growth in a cell viability assay.

[36] = test system: LB996-RCC; conditions: Homo sapiens, LB996-RCC
Description: SANGER: Inhibition of human LB996-RCC cell growth in a cell viability assay.

[37] = test system: TK-10; conditions: Homo sapiens, TK-10;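 further: growth inhibition of TK-10 cells, read out in a cell viability assay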
Description: SANGER: Inhibition of human TK10 cell growth in a cell viability assay.

[38] = test system: HL-60; conditions: Homo sapiens, HL-60;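 further: growth inhibition of human HL-60 cells, read out with a cell viability assay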
Description: SANGER: Inhibition of human HL-60 cell growth in a cell viability assay.

[39] = test system: SK-MEL-1; conditions: Homo sapiens, SK-MEL-1;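 further: growth inhibition of human SK-MEL-1 cells, read out by a cell viability assay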
Description: SANGER: Inhibition of human SK-MEL-1 cell growth in a cell viability assay.

[40] = test system: NCI-H1155; conditions: Homo sapiens, NCI-H1155;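 further: cell growth inhibition measured by a viability assay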
Description: SANGER: Inhibition of human NCI-H1155 cell growth in a cell viability assay.

[41] = test system: NB6; conditions: Homo sapiens, NB6;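 further: growth inhibition of NB6 cells, read out by a cell viability assay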
Description: SANGER: Inhibition of human NB6 cell growth in a cell viability assay.

[42] = test system: COLO-800; conditions: Homo sapiens, COLO-800;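 further: growth inhibition of COLO-800 cells, read out with a cell viability assay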
Description: SANGER: Inhibition of human COLO-800 cell growth in a cell viability assay.

[43] = test system: MMAC-SF; conditions: Homo sapiens, MMAC-SF;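 further: growth inhibition of human MMAC-SF cells, read out with a cell viability assay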
Description: SANGER: Inhibition of human MMAC-SF cell growth in a cell viability assay.

[44] = test system: NB5; conditions: Homo sapiens, NB5;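 further: growth inhibition of NB5 cells, read out as cell viability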
Description: SANGER: Inhibition of human NB5 cell growth in a cell viability assay.

[45] = test system: ETK-1; conditions: Homo sapiens, ETK-1;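 further: growth inhibition of human ETK-1 cells, read out with a cell viability assay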
Description: SANGER: Inhibition of human ETK-1 cell growth in a cell viability assay.

[46] = test system: MZ1-PC; conditions: Homo sapiens, MZ1-PC;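 further: cell viability assay measuring growth inhibition of human MZ1-PC cells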
Description: SANGER: Inhibition of human MZ1-PC cell growth in a cell viability assay.

[47] = test system: EC-GI-10; conditions: Homo sapiens, EC-GI-10
Description: SANGER: Inhibition of human EC-GI-10 cell growth in a cell viability assay.

[48] = test system: KLE; conditions: Homo sapiens, KLE;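 further: growth inhibition of human KLE cells, read out with a cell viability assay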
Description: SANGER: Inhibition of human KLE cell growth in a cell viability assay.

Structure (SMILES): COc1cc(N2CCN(C)CC2)ccc1Nc1ncc2c(n1)N(C)c1ccccc1C(=O)N2C
- IC50 [1]: > 8 µM
- IC50 [2]: > 8 µM
- IC50 [3]: > 8 µM
- IC50 [4]: > 8 µM
- IC50 [5]: > 8 µM
- IC50 [6]: > 8 µM
- IC50 [7]: > 8 µM
- IC50 [8]: 7.11 µM
- IC50 [9]: > 8 µM
- IC50 [10]: > 8 µM
- IC50 [11]: > 8 µM
- IC50 [12]: > 8 µM
- IC50 [13]: > 8 µM
- IC50 [14]: > 8 µM
- IC50 [15]: > 8 µM
- IC50 [16]: > 8 µM
- IC50 [17]: 7.52 µM
- IC50 [18]: > 8 µM
- IC50 [19]: > 8 µM
- IC50 [20]: > 8 µM
- IC50 [21]: > 8 µM
- IC50 [22]: > 8 µM
- IC50 [23]: > 8 µM
- IC50 [24]: > 8 µM
- IC50 [25]: > 8 µM
- IC50 [26]: > 8 µM
- IC50 [27]: > 8 µM
- IC50 [28]: 7.43 µM
- IC50 [29]: 1.58 µM
- IC50 [30]: > 8 µM
- IC50 [31]: > 8 µM
- IC50 [32]: 7.55 µM
- IC50 [33]: 6.89 µM
- IC50 [34]: > 8 µM
- IC50 [35]: 2.57 µM
- IC50 [36]: 5.37 µM
- IC50 [37]: > 8 µM
- IC50 [38]: 5.14 µM
- IC50 [39]: > 8 µM
- IC50 [40]: > 8 µM
- IC50 [41]: > 8 µM
- IC50 [42]: > 8 µM
- IC50 [43]: > 8 µM
- IC50 [44]: > 8 µM
- IC50 [45]: > 8 µM
- IC50 [46]: > 8 µM
- IC50 [47]: > 8 µM

Structure (SMILES): C#Cc1cccc(Nc2ncnc3cc(OCCOC)c(OCCOC)cc23)c1 [ERLOTINIB]
- IC50 [1]: > 2 µM
- IC50 [2]: > 2 µM
- IC50 [3]: > 2 µM
- IC50 [4]: > 2 µM
- IC50 [6]: > 2 µM
- IC50 [7]: > 2 µM
- IC50 [8]: > 2 µM
- IC50 [9]: > 2 µM
- IC50 [10]: > 2 µM
- IC50 [11]: > 2 µM
- IC50 [12]: > 2 µM
- IC50 [13]: > 2 µM
- IC50 [14]: > 2 µM
- IC50 [15]: > 2 µM
- IC50 [16]: > 2 µM
- IC50 [17]: > 2 µM
- IC50 [18]: > 2 µM
- IC50 [19]: > 2 µM
- IC50 [20]: > 2 µM
- IC50 [21]: > 2 µM
- IC50 [22]: 1.23 µM
- IC50 [23]: > 2 µM
- IC50 [24]: > 2 µM
- IC50 [25]: > 2 µM
- IC50 [26]: > 2 µM
- IC50 [28]: > 2 µM
- IC50 [29]: > 2 µM
- IC50 [30]: > 2 µM
- IC50 [31]: > 2 µM
- IC50 [32]: > 2 µM
- IC50 [33]: > 2 µM
- IC50 [34]: > 2 µM
- IC50 [35]: > 2 µM
- IC50 [36]: 0.402 µM
- IC50 [37]: 0.859 µM
- IC50 [38]: > 2 µM
- IC50 [39]: > 2 µM
- IC50 [41]: > 2 µM
- IC50 [42]: > 2 µM
- IC50 [43]: > 2 µM
- IC50 [44]: > 2 µM
- IC50 [45]: > 2 µM
- IC50 [46]: > 2 µM
- IC50 [47]: > 2 µM

Structure (SMILES): N[C@@H](CSC(c1ccccc1)(c1ccccc1)c1ccccc1)C(=O)O [S-TRITYL-L-CYSTEINE]
- IC50 [1]: > 5.12 µM
- IC50 [2]: > 5.12 µM
- IC50 [3]: > 5.12 µM
- IC50 [5]: > 5.12 µM
- IC50 [6]: 2.6 µM
- IC50 [7]: 2.69 µM
- IC50 [8]: > 5.12 µM
- IC50 [9]: > 5.12 µM
- IC50 [10]: 4.93 µM
- IC50 [11]: > 5.12 µM
- IC50 [12]: > 5.12 µM
- IC50 [13]: 0.804 µM
- IC50 [14]: > 5.12 µM
- IC50 [15]: > 5.12 µM
- IC50 [16]: 3.6 µM
- IC50 [17]: 3.2 µM
- IC50 [18]: > 5.12 µM
- IC50 [19]: 3.19 µM
- IC50 [20]: > 5.12 µM
- IC50 [21]: 3.4 µM
- IC50 [22]: 0.915 µM
- IC50 [23]: > 5.12 µM
- IC50 [24]: 1.64 µM
- IC50 [25]: 1.73 µM
- IC50 [26]: 4.75 µM
- IC50 [27]: > 5.12 µM
- IC50 [28]: 0.99 µM
- IC50 [29]: > 5.12 µM
- IC50 [30]: 0.894 µM
- IC50 [31]: > 5.12 µM
- IC50 [32]: 3.15 µM
- IC50 [33]: 0.73 µM
- IC50 [34]: > 5.12 µM
- IC50 [35]: 0.867 µM
- IC50 [36]: 2.9 µM
- IC50 [37]: > 5.12 µM
- IC50 [38]: > 5.12 µM
- IC50 [39]: > 5.12 µM
- IC50 [40]: 3.8 µM
- IC50 [41]: 3.91 µM
- IC50 [42]: > 5.12 µM
- IC50 [43]: 2.69 µM
- IC50 [44]: > 5.12 µM
- IC50 [45]: 5.04 µM
- IC50 [48]: > 5.12 µM
- IC50 [46]: 1.63 µM
- IC50 [47]: > 5.12 µM

Structure (SMILES): CC[C@H](CO)Nc1nc(NCc2ccccc2)c2ncn(C(C)C)c2n1 [SELICICLIB]
- IC50 [1]: > 16 µM
- IC50 [2]: > 16 µM
- IC50 [3]: > 16 µM
- IC50 [4]: > 16 µM
- IC50 [5]: > 16 µM
- IC50 [6]: > 16 µM
- IC50 [7]: > 16 µM
- IC50 [8]: > 16 µM
- IC50 [9]: > 16 µM
- IC50 [10]: > 16 µM
- IC50 [11]: > 16 µM
- IC50 [12]: > 16 µM
- IC50 [13]: > 16 µM
- IC50 [14]: > 16 µM
- IC50 [15]: > 16 µM
- IC50 [16]: > 16 µM
- IC50 [17]: > 16 µM
- IC50 [18]: > 16 µM
- IC50 [19]: > 16 µM
- IC50 [20]: > 16 µM
- IC50 [21]: > 16 µM
- IC50 [22]: > 16 µM
- IC50 [23]: > 16 µM
- IC50 [24]: > 16 µM
- IC50 [25]: > 16 µM
- IC50 [26]: > 16 µM
- IC50 [28]: > 16 µM
- IC50 [29]: 12.4 µM
- IC50 [30]: > 16 µM
- IC50 [31]: > 16 µM
- IC50 [32]: > 16 µM
- IC50 [33]: > 16 µM
- IC50 [34]: > 16 µM
- IC50 [35]: > 16 µM
- IC50 [36]: > 16 µM
- IC50 [37]: > 16 µM
- IC50 [38]: > 16 µM
- IC50 [39]: > 16 µM
- IC50 [40]: > 16 µM
- IC50 [41]: > 16 µM
- IC50 [42]: > 16 µM
- IC50 [43]: > 16 µM
- IC50 [44]: > 16 µM
- IC50 [45]: > 16 µM
- IC50 [46]: > 16 µM
- IC50 [47]: > 16 µM

Structure (SMILES): CCN(CC)CCNC(=O)c1c(C)[nH]c(/C=C2\C(=O)Nc3ccc(F)cc32)c1C [SUNITINIB]
- IC50 [1]: > 8 µM
- IC50 [2]: > 8 µM
- IC50 [3]: 2.81 µM
- IC50 [5]: > 8 µM
- IC50 [6]: 1.82 µM
- IC50 [7]: > 8 µM
- IC50 [8]: > 8 µM
- IC50 [9]: > 8 µM
- IC50 [10]: 7.78 µM
- IC50 [11]: > 8 µM
- IC50 [12]: > 8 µM
- IC50 [13]: > 8 µM
- IC50 [14]: > 8 µM
- IC50 [15]: > 8 µM
- IC50 [16]: > 8 µM
- IC50 [17]: > 8 µM
- IC50 [18]: > 8 µM
- IC50 [19]: > 8 µM
- IC50 [20]: > 8 µM
- IC50 [21]: > 8 µM
- IC50 [22]: > 8 µM
- IC50 [23]: 7.54 µM
- IC50 [24]: > 8 µM
- IC50 [25]: 4.81 µM
- IC50 [26]: > 8 µM
- IC50 [28]: 2.34 µM
- IC50 [29]: > 8 µM
- IC50 [30]: > 8 µM
- IC50 [31]: > 8 µM
- IC50 [32]: 3.33 µM
- IC50 [33]: 2.34 µM
- IC50 [34]: > 8 µM
- IC50 [35]: 2.33 µM
- IC50 [36]: 4.12 µM
- IC50 [37]: > 8 µM
- IC50 [38]: 4.21 µM
- IC50 [39]: > 8 µM
- IC50 [40]: > 8 µM
- IC50 [41]: > 8 µM
- IC50 [42]: > 8 µM
- IC50 [43]: 6.11 µM
- IC50 [44]: > 8 µM
- IC50 [45]: 1.29 µM
- IC50 [48]: > 8 µM
- IC50 [46]: 7.3 µM
- IC50 [47]: > 8 µM
